{"source": "ChEMBL document CHEMBL3885881", "about": "“DrugMatrix”", "species": "Rattus norvegicus", "assay": "DrugMatrix - Regimen: Daily Repeat", "type": "toxicity, organism-based, Sprague-Dawley", "parameters": "regimen Daily Repeat, gender Male, age 6-8 weeks", "details": "in vivo, po, 0.0001 mg/kg, route oral GAVAGE, dose level Low, vehicle .5 % CMC; for ABSOLUTE BASOPHIL / ABSOLUTE EOSINOPHIL / ABSOLUTE LYMPHOCYTE / ABSOLUTE MONOCYTE / ABSOLUTE SEGMENTED NEUTROPHIL / BASOPHIL / EOSINOPHIL / ERYTHROCYTE COUNT / HEMATOCRIT / HEMOGLOBIN / LEUKOCYTE COUNT / LYMPHOCYTE / MEAN CORPUSCULAR HEMOGLOBIN / MEAN CORPUSCULAR HEMOGLOBIN CONCENTRATION / MEAN CORPUSCULAR VOLUME / MONOCYTE / NEUTROPHIL / NUCLEATED RED BLOOD CELLS / PLATELET COUNT: tissue Blood; for ALANINE AMINOTRANSFERASE / ALBUMIN / ALKALINE PHOSPHATASE / ASPARTATE AMINOTRANSFERASE / BLOOD UREA NITROGEN / CARBON DIOXIDE / CHLORIDE / CHOLESTEROL / CREATINE PHOSPHOKINASE / CREATININE / GLUCOSE / LACTATE DEHYDROGENASE / LIPASE / PHOSPHORUS / POTASSIUM / SODIUM / TOTAL BILIRUBIN / TOTAL PROTEIN / URIC ACID: tissue Plasma"}
{"smiles": "C=C1/C(=C\\C=C2/CCC[C@]3(C)[C@@H]([C@H](C)CCCC(C)C)CC[C@@H]23)C[C@@H](O)C[C@@H]1O", "note": "[ALFACALCIDOL]", "values": [{"measurement": "ABSOLUTE BASOPHIL", "setting": "72 h, time 3 day", "value": 0, "unit": "CELLS/uL"}, {"measurement": "ABSOLUTE EOSINOPHIL", "setting": "72 h, time 3 day", "value": 140, "unit": "CELLS/uL"}, {"measurement": "ABSOLUTE LYMPHOCYTE", "setting": "72 h, time 3 day", "value": 12178.67, "unit": "CELLS/uL"}, {"measurement": "ABSOLUTE MONOCYTE", "setting": "72 h, time 3 day", "value": 352, "unit": "CELLS/uL"}, {"measurement": "ABSOLUTE SEGMENTED NEUTROPHIL", "setting": "72 h, time 3 day", "value": 1262.67, "unit": "CELLS/uL"}, {"measurement": "BASOPHIL", "setting": "72 h, time 3 day", "value": 0, "unit": "%"}, {"measurement": "EOSINOPHIL", "setting": "72 h, time 3 day", "value": 1, "unit": "%"}, {"measurement": "ERYTHROCYTE COUNT", "setting": "72 h, time 3 day", "value": 6.05, "unit": "x10E6/uL"}, {"measurement": "HEMATOCRIT", "setting": "72 h, time 3 day", "value": 38.07, "unit": "%"}, {"measurement": "HEMOGLOBIN", "setting": "72 h, time 3 day", "value": 14.23, "unit": "G/DL"}, {"measurement": "LEUKOCYTE COUNT", "setting": "72 h, time 3 day", "value": 13.93, "unit": "x10E3/uL"}, {"measurement": "LYMPHOCYTE", "setting": "72 h, time 3 day", "value": 87.33, "unit": "%"}, {"measurement": "MEAN CORPUSCULAR HEMOGLOBIN", "setting": "72 h, time 3 day", "value": 23.6, "unit": "pg"}, {"measurement": "MEAN CORPUSCULAR HEMOGLOBIN CONCENTRATION", "setting": "72 h, time 3 day", "value": 37.4, "unit": "G/DL"}, {"measurement": "MEAN CORPUSCULAR VOLUME", "setting": "72 h, time 3 day", "value": 63.03, "unit": "fL"}, {"measurement": "MONOCYTE", "setting": "72 h, time 3 day", "value": 2.67, "unit": "%"}, {"measurement": "NEUTROPHIL", "setting": "72 h, time 3 day", "value": 9, "unit": "%"}, {"measurement": "NUCLEATED RED BLOOD CELLS", "setting": "72 h, time 3 day", "value": "0.33 /100WBC"}, {"measurement": "PLATELET COUNT", "setting": "72 h, time 3 day", "value": 1202.33, "unit": "x10E3/uL"}, {"measurement": "ALANINE AMINOTRANSFERASE", "setting": "72 h, time 3 day", "value": 48.33, "unit": "u/L"}, {"measurement": "ALBUMIN", "setting": "72 h, time 3 day", "value": 4.17, "unit": "G/DL"}, {"measurement": "ALKALINE PHOSPHATASE", "setting": "72 h, time 3 day", "value": 299.33, "unit": "u/L"}, {"measurement": "ASPARTATE AMINOTRANSFERASE", "setting": "72 h, time 3 day", "value": 81, "unit": "u/L"}, {"measurement": "BLOOD UREA NITROGEN", "setting": "72 h, time 3 day", "value": 17, "unit": "mg/dL"}, {"measurement": "CARBON DIOXIDE", "setting": "72 h, time 3 day", "value": 24.67, "unit": "mmol/L"}, {"measurement": "CHLORIDE", "setting": "72 h, time 3 day", "value": 103.5, "unit": "MEQ/L"}, {"measurement": "CHOLESTEROL", "setting": "72 h, time 3 day", "value": 65, "unit": "mg/dL"}, {"measurement": "CREATINE PHOSPHOKINASE", "setting": "72 h, time 3 day", "value": 332, "unit": "u/L"}, {"measurement": "CREATININE", "setting": "72 h, time 3 day", "value": 0.2, "unit": "mg/dL"}, {"measurement": "GLUCOSE", "setting": "72 h, time 3 day", "value": 178.67, "unit": "mg/dL"}, {"measurement": "LACTATE DEHYDROGENASE", "setting": "72 h, time 3 day", "value": 142.33, "unit": "u/L"}, {"measurement": "LIPASE", "setting": "72 h, time 3 day", "value": 9.33, "unit": "u/L"}, {"measurement": "PHOSPHORUS", "setting": "72 h, time 3 day", "value": 12.17, "unit": "mg/dL"}, {"measurement": "POTASSIUM", "setting": "72 h, time 3 day", "value": 6.03, "unit": "MEQ/L"}, {"measurement": "SODIUM", "setting": "72 h, time 3 day", "value": 146.55, "unit": "MEQ/L"}, {"measurement": "TOTAL BILIRUBIN", "setting": "72 h, time 3 day", "value": 0.23, "unit": "mg/dL"}, {"measurement": "TOTAL PROTEIN", "setting": "72 h, time 3 day", "value": 5.83, "unit": "G/DL"}, {"measurement": "URIC ACID", "setting": "72 h, time 3 day", "value": 1.77, "unit": "mg/dL"}, {"measurement": "ABSOLUTE BASOPHIL", "setting": "120 h, time 5 day", "value": 0, "unit": "CELLS/uL"}, {"measurement": "ABSOLUTE EOSINOPHIL", "setting": "120 h, time 5 day", "value": 164, "unit": "CELLS/uL"}, {"measurement": "ABSOLUTE LYMPHOCYTE", "setting": "120 h, time 5 day", "value": 10288.67, "unit": "CELLS/uL"}, {"measurement": "ABSOLUTE MONOCYTE", "setting": "120 h, time 5 day", "value": 193, "unit": "CELLS/uL"}, {"measurement": "ABSOLUTE SEGMENTED NEUTROPHIL", "setting": "120 h, time 5 day", "value": 1121, "unit": "CELLS/uL"}, {"measurement": "BASOPHIL", "setting": "120 h, time 5 day", "value": 0, "unit": "%"}, {"measurement": "EOSINOPHIL", "setting": "120 h, time 5 day", "value": 1.33, "unit": "%"}, {"measurement": "ERYTHROCYTE COUNT", "setting": "120 h, time 5 day", "value": 5.95, "unit": "x10E6/uL"}, {"measurement": "HEMATOCRIT", "setting": "120 h, time 5 day", "value": 36.97, "unit": "%"}, {"measurement": "HEMOGLOBIN", "setting": "120 h, time 5 day", "value": 13.63, "unit": "G/DL"}, {"measurement": "LEUKOCYTE COUNT", "setting": "120 h, time 5 day", "value": 11.77, "unit": "x10E3/uL"}, {"measurement": "LYMPHOCYTE", "setting": "120 h, time 5 day", "value": 87.33, "unit": "%"}, {"measurement": "MEAN CORPUSCULAR HEMOGLOBIN", "setting": "120 h, time 5 day", "value": 22.9, "unit": "pg"}, {"measurement": "MEAN CORPUSCULAR HEMOGLOBIN CONCENTRATION", "setting": "120 h, time 5 day", "value": 36.9, "unit": "G/DL"}, {"measurement": "MEAN CORPUSCULAR VOLUME", "setting": "120 h, time 5 day", "value": 62.07, "unit": "fL"}, {"measurement": "MONOCYTE", "setting": "120 h, time 5 day", "value": 1.67, "unit": "%"}, {"measurement": "NEUTROPHIL", "setting": "120 h, time 5 day", "value": 9.67, "unit": "%"}, {"measurement": "NUCLEATED RED BLOOD CELLS", "setting": "120 h, time 5 day", "value": "0 /100WBC"}, {"measurement": "PLATELET COUNT", "setting": "120 h, time 5 day", "value": 1179, "unit": "x10E3/uL"}, {"measurement": "ALANINE AMINOTRANSFERASE", "setting": "120 h, time 5 day", "value": 40.33, "unit": "u/L"}, {"measurement": "ALBUMIN", "setting": "120 h, time 5 day", "value": 4.23, "unit": "G/DL"}, {"measurement": "ALKALINE PHOSPHATASE", "setting": "120 h, time 5 day", "value": 369.33, "unit": "u/L"}, {"measurement": "ASPARTATE AMINOTRANSFERASE", "setting": "120 h, time 5 day", "value": 94.33, "unit": "u/L"}, {"measurement": "BLOOD UREA NITROGEN", "setting": "120 h, time 5 day", "value": 21, "unit": "mg/dL"}, {"measurement": "CARBON DIOXIDE", "setting": "120 h, time 5 day", "value": 26.67, "unit": "mmol/L"}, {"measurement": "CHLORIDE", "setting": "120 h, time 5 day", "value": 105, "unit": "MEQ/L"}, {"measurement": "CHOLESTEROL", "setting": "120 h, time 5 day", "value": 57.33, "unit": "mg/dL"}, {"measurement": "CREATINE PHOSPHOKINASE", "setting": "120 h, time 5 day", "value": 399, "unit": "u/L"}, {"measurement": "CREATININE", "setting": "120 h, time 5 day", "value": 0.21, "unit": "mg/dL"}, {"measurement": "GLUCOSE", "setting": "120 h, time 5 day", "value": 158.33, "unit": "mg/dL"}, {"measurement": "LACTATE DEHYDROGENASE", "setting": "120 h, time 5 day", "value": 716.33, "unit": "u/L"}, {"measurement": "LIPASE", "setting": "120 h, time 5 day", "value": 8.33, "unit": "u/L"}, {"measurement": "PHOSPHORUS", "setting": "120 h, time 5 day", "value": 11.8, "unit": "mg/dL"}, {"measurement": "POTASSIUM", "setting": "120 h, time 5 day", "value": 5.72, "unit": "MEQ/L"}, {"measurement": "SODIUM", "setting": "120 h, time 5 day", "value": 145.1, "unit": "MEQ/L"}, {"measurement": "TOTAL BILIRUBIN", "setting": "120 h, time 5 day", "value": 0.13, "unit": "mg/dL"}, {"measurement": "TOTAL PROTEIN", "setting": "120 h, time 5 day", "value": 5.9, "unit": "G/DL"}, {"measurement": "URIC ACID", "setting": "120 h, time 5 day", "value": 1.3, "unit": "mg/dL"}]}
